According to US7259004B1, “Endophytic streptomycetes from higher plants with biological activity” (Montana State University, priority 2002, dated 2007):

Columns and labels:
[1] = test system: S. maltophilia ATCC 13637; test: disk diffusion assay; format: cell-based, Stenotrophomas maltophilia; details: 10 micrograms per disk; 35° C.
[2] = test system: Bacillus anthracis K8902; format: cell-based; details: 10 micrograms per disk; ciprofloxacin 5, vancomycin 30 micrograms per disk; 35° C.
[3] = test system: Saccharomyces cerevisiae ATCC 9763; test: disk diffusion assay; format: cell-based; details: 10 micrograms per disk; 35° C. Also: key: R = resistant.
[4] = test system: DNA synthesis in Bacillus subtilis; test: macromolecular synthesis whole cell assay, [3H]thymidine incorporation; format: cell-based; details: for % [3H]thymidine (DNA synthesis) incorporation of that of the untreated culture: 1×MIC
[5] = test system: Enterococcus faecalis ATCC 29212; test: disk diffusion assay; format: cell-based; details: 10 micrograms per disk; ciprofloxacin 5, vancomycin 30 micrograms per disk; 35° C.
[6] = test system: Cell wall synthesis in Bacillus subtilis; test: macromolecular synthesis whole cell assay, [3H]N-acetyl glucosamine incorporation; format: cell-based; details: for % [3H]N-acetyl glucosamine (Cell wall synthesis) incorporation of that of the untreated culture: 1×MIC
[7] = test system: Plasmodium falciparum strain CSC-1 (Honduras); test: antimalarial assay, 3H-phenylalanine radiobioassay in human red blood cells; details: human red blood cells, 3H-phenylalanine; standard deviation of the mean, three experiments
[8] = test system: Protein synthesis in Bacillus subtilis; test: macromolecular synthesis whole cell assay, [3H]amino acid mixture incorporation; format: cell-based; details: for % [3H]amino acid mixture (Protein synthesis) incorporation of that of the untreated culture: 1×MIC
[9] = test system: RNA synthesis in Bacillus subtilis; test: macromolecular synthesis whole cell assay, [3H]uridine incorporation; format: cell-based; details: for % [3H]uridine (RNA synthesis) incorporation of that of the untreated culture: 1×MIC
[10] = test system: E. faecalis 29212; test: microbroth dilution MIC; format: cell-based, Enterococcus faecalis
[11] = test system: Staphylococccus simulans 11631; test: microbroth dilution MIC; format: cell-based, Staphylococcus simulans
[12] = test system: Acinetobacter sp. ATCC 49137; test: disk diffusion assay; format: cell-based; details: 10 micrograms per disk; ciprofloxacin 5, vancomycin 30 micrograms per disk; grown at 30° C.
[13] = test system: Candida tropicalis ATCC 750; test: disk diffusion assay; format: cell-based; details: 10 micrograms per disk; 35° C. Also: key: R = resistant.
[14] = test system: Human Breast Cancer Epithelial BT-20; test: CellTiter 96 Aqueous Non-Radioactive Cell Proliferation Assay; format: cell-based; details: 96-144 hours; Table 7
[15] = test system: Human Lung Cancer Epithelial A549; test: as above; format: cell-based; details: 48 hours; Table 7
Method in brief: (§1)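 Cells rested 5 h at 37° C after seeding, then treated in triplicate with two-fold serial dilutions of compound. A-549 and ME-180 were exposed for 48 h. After 1–4 h MTS reagent at 37° C, OD490 was read and corrected by subtracting medium-only blanks.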

[16] = test system: Human Primary Mammary Epithelial HMEC; test: as above; format: cell-based; details: 48 hours; Table 7
[17] = test system: Human Cervical Cancer Epithelial ME180; test: as above; format: cell-based; details: 48 hours; Table 7
Method in brief: as §1

[18] = test system: Candida krusei ATCC 6258; test: disk diffusion assay; format: cell-based; details: 10 micrograms per disk; 35° C.
[19] = test system: Cryptococcus neoformans ATCC 32045; test: disk diffusion assay; format: cell-based; details: 10 micrograms per disk; 35° C.
[20] = test system: Neisseria gonnorhea ATCC 49226; test: disk diffusion assay; format: cell-based; details: 10 micrograms per disk; ciprofloxacin 5, vancomycin 30 micrograms per disk; GC agar with 1% growth supplement with 5% CO2
[21] = test system: M. tuberculosis H37Rv (ATCC 25618) (drug sensitive); test: IC50 in Mycobacteria 7H11 agar; format: cell-based, Mycobacterium tuberculosis; details: 7H11 agar with 10% OADC
[22] = test system: human red blood cells
[23] = test system: Candida albicans; test: microbroth dilution MIC
[24] = test system: Staphyloccus aureus MH II Eli Lilly Co.; test: microbroth dilution MIC; details: drug sensitive strain

Substance | diameter of the zone of inhibition, S. maltophilia ATCC 13637 [1] | diameter of the zone of inhibition, Bacillus anthracis K8902 [2] | diameter of the zone of inhibition, Saccharomyces cerevisiae ATCC 9763 [3] | diameter of the zone of inhibition, Enterococcus faecalis ATCC 29212 [5] | IC50 Plasmodium falciparum [7] | MIC E. faecalis 29212 [10] | MIC Staphylococccus simulans 11631 [11] | diameter of the zone of inhibition, Acinetobacter sp. ATCC 49137 [12] | diameter of the zone of inhibition, Candida tropicalis ATCC 750 [13] | IC50 Human Breast Cancer Epithelial BT-20 [14] | IC50 Human Lung Cancer Epithelial A549 [15] | IC50 Human Primary Mammary Epithelial HMEC [16] | IC50 Human Cervical Cancer Epithelial ME180 [17] | diameter of the zone of inhibition, Candida krusei ATCC 6258 [18] | diameter of the zone of inhibition, Cryptococcus neoformans ATCC 32045 [19] | diameter of the zone of inhibition, Neisseria gonnorhea ATCC 49226 [20] | IC50 M. tuberculosis H37Rv (ATCC 25618) (drug sensitive) [21] | further results
munumbicin B | 9 mm | 18 mm | R | 18 mm | 0.13 ± 0.07 µg/mL | 0.25 micrograms/ml | 1 micrograms/ml | R | R | 0.019 micrograms/ml | 0.019 micrograms/ml | 0.011 micrograms/ml | 0.140 micrograms/ml | R | 12 mm | 14 mm | 46 micrograms/ml | effect on DNA synthesis (in words) [4]: no effect; % [3H]thymidine (DNA synthesis) incorporation of that of the untreated culture ([4]; 5 min): 93%; % [3H]thymidine (DNA synthesis) incorporation of that of the untreated culture ([4]; 10 min): 102%; effect on cell wall synthesis (in words) [6]: some inhibitory effect; % [3H]N-acetyl glucosamine (Cell wall synthesis) incorporation of that of the untreated culture ([6]; 5 min): 81%; % [3H]N-acetyl glucosamine (Cell wall synthesis) incorporation of that of the untreated culture ([6]; 10 min): 59%; effect on protein synthesis (in words) [8]: milder inhibitory effect; % [3H]amino acid mixture (Protein synthesis) incorporation of that of the untreated culture ([8]; 5 min): 85%; % [3H]amino acid mixture (Protein synthesis) incorporation of that of the untreated culture ([8]; 10 min): 74%; effect on RNA synthesis (in words) [9]: some inhibitory effect; % [3H]uridine (RNA synthesis) incorporation of that of the untreated culture ([9]; 5 min): 64%; % [3H]uridine (RNA synthesis) incorporation of that of the untreated culture ([9]; 10 min): 59%
munumbicin C | R | R | R | 20 mm | 0.0065 µg/mL | 0.5 micrograms/ml | 1 micrograms/ml | R | R | 0.013 micrograms/ml | 0.3 micrograms/ml | 0.0023 micrograms/ml | 0.1 micrograms/ml | 8 mm | 12 mm | 8 mm | >150 micrograms/ml | concentration causing detectable lysis of human red blood cells [22]: > 80 micrograms/ml; MIC Candida albicans [23]: >10 micrograms/ml; MIC Staphyloccus aureus MH II Eli Lilly Co. [24]: 0.4 micrograms/ml
